Reference: patent publication US8637537B2, “Serine/threonine kinase inhibitors” (Genentech, Inc., priority 2011, dated 2014)
Read-outs that look alike come from different tables or passages of the source.

Biological target: T1, human recombinant GST-PAK1-KD protein (Homo sapiens, UniProt Q13153)
T1 construct: residues #249-545 of human PAK1, UniProtKP/Swiss Q13153; His6 (N); made in house; host or cells: Sf9 insect cells, pAcGP67 baculovirus expression vector
Assay: GST-PAK1-KD (kinase domain) biochemical assay, microfluidic mobility shift
Conditions: PAK1 Ki class

T1 sequence (Q13153 249-545): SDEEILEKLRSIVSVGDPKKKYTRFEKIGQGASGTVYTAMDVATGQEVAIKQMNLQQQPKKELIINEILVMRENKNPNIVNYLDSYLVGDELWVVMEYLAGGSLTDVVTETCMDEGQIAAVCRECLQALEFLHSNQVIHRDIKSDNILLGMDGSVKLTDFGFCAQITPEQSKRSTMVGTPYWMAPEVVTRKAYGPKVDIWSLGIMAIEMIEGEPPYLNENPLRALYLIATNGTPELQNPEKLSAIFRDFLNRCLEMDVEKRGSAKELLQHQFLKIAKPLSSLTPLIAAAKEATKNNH

Compound	Ki (Table II, read-out: Ki) [nM]	Ki (Table I, read-out: Ki) [nM]	other results
C[C@H](c1ccc2[nH]cnc2c1)N(C)c1nccc(Nc2cc(C3CC3)[nH]n2)n1 [I-55, (R)—N^2-(1-(1H-benzo[d]imidazol-5-yl)ethyl)-N^4-(5-cyclopropyl-1H-pyrazol-3-yl)-N^2-methylpyrimidine-2,4-diamine]	–	50 to 250	–
Cc1cc(Nc2ccnc(N[C@@H](C)c3ccc4[nH]ccc4c3)n2)n[nH]1 [I-112, (S)—N^2-(1-(1H-indol-5-yl)ethyl)-N^4-(5-methyl-1H-pyrazol-3-yl)pyrimidine-2,4-diamine]	–	250 to 1000	–
c1cc(CNc2nccc(Nc3cc(C4CC4)[nH]n3)n2)c2cc[nH]c2c1 [I-38, N^2-((1H-Indol-4-yl)methyl)-N^4-(5-cyclopropyl-1H-pyrazol-3-yl)pyrimidine-2,4-diamine]	–	50 to 250	–
c1ccc([C@@H]2C[C@H]2c2cc(Nc3ccnc(NCc4ccc5[nH]cnc5c4)n3)n[nH]2)cc1 (racemic) [I-27, N^2-(1H-Benzimidazol-5-ylmethyl)-N^4-[5-[(trans)-2-phenylcyclopropyl]-1H-pyrazol-3-yl]pyrimidine-2,4-diamine]	–	50 to 250	–
C[C@H](Nc1nccc(Nc2cc(C3CCCC3)[nH]n2)n1)c1ccc2[nH]ccc2c1 [I-113, (S)—N^2-(1-(1H-indol-5-yl)ethyl)-N^4-(5-cyclopentyl-1H-pyrazol-3-yl)pyrimidine-2,4-diamine]	–	< 50	–
Clc1c(CNc2nccc(Nc3cc(C4CC4)[nH]n3)n2)ccc2[nH]cnc12 [I-3, N^2-[(4-Chloro-1H-benzimidazol-5-yl)methyl]-N^4-(5-cyclopropyl-1H-pyrazol-3-yl)pyrimidine-2,4-diamine]	–	–	Ki (Ki, Table I): < 50 nM
C[C@H](Nc1nccc(Nc2cc([C@H]3C[C@H]3F)[nH]n2)n1)c1ccc2[nH]ccc2c1 [I-65, N^2—((S)-1-(1H-indol-5-yl)ethyl)-N^4-(5-((1R,2R)-2-fluorocyclopropyl)-1H-pyrazol-3-yl)pyrimidine-2,4-diamine]	–	< 50	–
CN(Cc1ccc2[nH]cnc2c1)c1nccc(Nc2cc(C3CC3)[nH]n2)n1 [I-12, N^2-((1H-Benzo[d]imidazol-5-yl)methyl)-N^4-(5-cyclopropyl-1H-pyrazol-3-yl)-N^2-methylpyrimidine-2,4-diamine]	–	< 50	–
Cc1cc(CNc2nccc(Nc3cc(C4CC4)[nH]n3)n2)cc2nc[nH]c12 [I-26, N^4-(5-Cyclopropyl-1H-pyrazol-3-yl)-N^2-((7-methyl-1H-benzo[d]imidazol-5-yl)methyl)-pyrimidine-2,4-diamine]	–	50 to 250	–
C[C@H](Nc1nccc(Nc2cc([C@@H]3C[C@H]3F)[nH]n2)n1)c1ccc2[nH]cnc2c1 [I-69, N^2—((S)-1-(1H-benzo[d]imidazol-5-yl)ethyl)-N^4-(5-((1S,2R)-2-fluorocyclopropyl)-1H-pyrazol-3-yl)pyrimidine-2,4-diamine]	–	< 50	–
CN(Cc1cccc2[nH]ccc12)c1nccc(Nc2cc(C3CC3)[nH]n2)n1 [I-40, N^2-((1H-Indol-4-yl)methyl)-N^4-(5-cyclopropyl-1H-pyrazol-3-yl)-N^2-methylpyrimidine-2,4-diamine]	–	50 to 250	–
Clc1cc2[nH]cnc2cc1CNc1nccc(Nc2cc(C3CC3)[nH]n2)n1 [I-94, N^2-((6-chloro-1H-benzo[d]imidazol-5-yl)methyl)-N^4-(5-cyclopropyl-1H-pyrazol-3-yl)-pyrimidine-2,4-diamine]	–	50 to 250	–
C[C@H](Nc1nccc(Nc2cc(C3CC3)[nH]n2)n1)c1ccc2cc[nH]c2c1 [I-34, (S)—N^2-(1-(1H-indol-6-yl)ethyl)-N^4-(5-cyclopropyl-1H-pyrazol-3-yl)pyrimidine-2,4-diamine]	–	250 to 1000	–
C[C@H](Nc1nccc(Nc2cc(C3CCOC3)[nH]n2)n1)c1ccc2[nH]ccc2c1 (stereo partly drawn) [I-115, N^2—((S)-1-(1H-indol-5-yl)ethyl)-N^4-(5-(tetrahydrofuran-3-yl)-1H-pyrazol-3-yl)pyrimidine-2,4-diamine]	–	< 50	–

Continued, in another order:

Ki (Table II, read-out: Ki) [nM]	Ki (Table I, read-out: Ki) [nM]	Compound	other results
< 50	–	CN(Cc1ccc2[nH]cnc2c1Cl)c1nccc(Nc2cc(OCc3ccccc3)[nH]n2)n1 [II-3, N^4-(5-Benzyloxy-1H-pyrazol-3-yl)-N^2-[(4-chloro-1H-benzimidazol-5-yl)methyl]-N^2-methyl-pyrimidine-2,4-diamine]	–
< 50	–	CN(C)CCN(Cc1cccc2[nH]ccc12)c1nccc(Nc2cc([C@@H]3C[C@H]3F)[nH]n2)n1 [II-83, N^2-((1H-indol-4-yl)methyl)-N^2-(2-(dimethylamino)ethyl)-N^4-(5-((1S,2R)-2-fluorocyclopropyl)-1H-pyrazol-3-yl)pyrimidine-2,4-diamine]	–
< 50	–	Fc1ccc2[nH]ncc2c1CNc1nccc(Nc2cc(C3CC3)[nH]n2)n1 [II-75, N^4-(5-cyclopropyl-1H-pyrazol-3-yl)-N^2-((5-fluoro-1H-indazol-4-yl)methyl)pyrimidine-2,4-diamine]	–
50 to 250	–	C[C@H](Nc1nccc(Nc2cc(C3CC3)[nH]n2)n1)c1cc2nc[nH]c2cc1Cl [II-38, (S)-N^2-(1-(6-Chloro-1H-benzo[d]imidazol-5-yl)ethyl)-N^4-(5-cyclopropyl-1H-pyrazol-3-yl)pyrimidine-2,4-diamine]	–
< 50	–	CC(C)N(Cc1ccc2[nH]cnc2c1)c1nccc(Nc2cc(C3CC3)[nH]n2)n1 [II-26, N^2-((1H-Benzo[d]imidazol-5-yl)methyl)-N^4-(5-cyclopropyl-1H-pyrazol-3-yl)-N^2-isopropylpyrimidine-2,4-diamine]	–
< 50	–	C[C@@H](Oc1cc(Nc2ccnc(N(C)Cc3ccc4[nH]cnc4c3Cl)n2)n[nH]1)c1ccccc1 [II-21, (R)-N^2-((4-Chloro-1H-benzo[d]imidazol-5-yl)methyl)-N^2-methyl-N^4-(5-(1-phenylethoxy)-1H-pyrazol-3-yl)pyrimidine-2,4-diamine]	–
50 to 250	–	Cc1cc(CNc2nccc(Nc3cc(C4CC4)[nH]n3)n2)c2nc[nH]c2c1 [II-28, N^4-(5-Cyclopropyl-1H-pyrazol-3-yl)-N^2-((6-methyl-1H-benzo[d]imidazol-4-yl)methyl)-pyrimidine-2,4-diamine]	–
< 50	–	Fc1cnc(NCc2cc(Cl)cc3[nH]ncc23)nc1Nc1cc(C2CC2)[nH]n1 [II-57, N^2-((6-chloro-1H-indazol-4-yl)methyl)-N^4-(5-cyclopropyl-1H-pyrazol-3-yl)-5-fluoropyrimidine-2,4-diamine]	–
< 50	–	CN(Cc1ccc2[nH]cnc2c1Cl)c1nccc(Nc2cc([C@H]3CC3(F)F)[nH]n2)n1 [II-54, (R)-N^2-((4-chloro-1H-benzo[d]imidazol-5-yl)methyl)-N^4-(5-(2,2-difluorocyclopropyl)-1H-pyrazol-3-yl)-N^2-methylpyrimidine-2,4-diamine]	–
< 50	–	CN(Cc1ccc2[nH]cnc2c1Cl)c1nccc(Nc2cc(C3(F)CC3)[nH]n2)n1 [II-55, N^2-((4-chloro-1H-benzo[d]imidazol-5-yl)methyl)-N^4-(5-(1-fluorocyclorpropyl)-1H-pyrazol-3-yl)-N^2-methylpyrimidine-2,4-diamine]	–
50 to 250	–	Fc1cc(CNc2nccc(Nc3cc(C4CC4)[nH]n3)n2)c2nc[nH]c2c1 [II-27, N^4-(5-Cyclopropyl-1H-pyrazol-3-yl)-N^2-((6-fluoro-1H-benzo[d]imidazol-4-yl)methyl)-pyrimidine-2,4-diamine]	–
50 to 250	–	CCc1cc(Nc2ccnc(NCc3cc(F)cc4[nH]ncc34)n2)n[nH]1 [II-107, N^4-(5-ethyl-1H-pyrazol-3-yl)-N^2-((6-fluoro-1H-indazol-4-yl)methyl)pyrimidine-2,4-diamine]	–
< 50	–	c1cc(Nc2cc(C3CC3)[nH]n2)nc(N(Cc2ccc3[nH]cnc3c2)C2CCNCC2)n1 [II-90, N^2-((1H-benzo[d]imidazol-5-yl)methyl)-N^4-(5-cyclopropyl-1H-pyrazol-3-yl)-N^2-(piperidin-4-yl)pyrimidine-2,4-diamine]	–
< 50	–	CCN(Cc1cc(F)cc2[nH]ncc12)c1nccc(Nc2cc(C3CC3)[nH]n2)n1 [II-70, N^4-(5-cyclopropyl-1H-pyrazol-3-yl)-N^2-ethyl-N^2-((6-fluoro-1H-indazol-4-yl)methyl)pyrimidine-2,4-diamine]	–
< 50	–	CN(C)CCN(Cc1cccc2[nH]ccc12)c1nccc(Nc2cc(C3CC3)[nH]n2)n1 [II-89, N^2-((1H-indol-4-yl)methyl)-N^4-(5-cyclopropyl-1H-pyrazol-3-yl)-N^2-(2-(dimethylamino)ethyl)-pyrimidine-2,4-diamine]	–
250 to 1000	–	Fc1cnc(NCc2cc(C(F)(F)F)cc3[nH]ncc23)nc1Nc1cc(C2CC2)[nH]n1 [II-109, N^4-(5-cyclopropyl-1H-pyrazol-3-yl)-5-fluoro-N^2-((6-(trifluoromethyl)-1H-indazol-4-yl)methyl)pyrimidine-2,4-diamine]	–
< 50	–	CCc1c(CNc2nccc(Nc3cc(C4CC4)[nH]n3)n2)ccc2[nH]cnc12 [II-7, N^4-(5-Cyclopropyl-1H-pyrazol-3-yl)-N^2-[(4-ethyl-1H-benzimidazol-5-yl)methyl]pyrimidine-2,4-diamine]	–
< 50	–	Cc1cc(CNc2nccc(Nc3cc(C4CC4)[nH]n3)n2)c2cn[nH]c2c1 [II-13, N^4-(5-Cyclopropyl-1H-pyrazol-3-yl)-N^2-((6-methyl-1H-indazol-4-yl)methyl)pyrimidine-2,4-diamine]	–
50 to 250	–	CN(Cc1ccc2[nH]cnc2c1Cl)c1ncc(F)c(Nc2cc(C(C)(C)C)[nH]n2)n1 [II-42, N^4-(5-tert-Butyl-1H-pyrazol-3-yl)-N^2-((4-chloro-1H-benzo[d]imidazol-5-yl)methyl)-5-fluoro-N^2-methylpyrimidine-2,4-diamine]	–
< 50	–	CCN(Cc1cc(F)cc2[nH]ncc12)c1nccc(Nc2cc([C@H](C)C3CC3)[nH]n2)n1 [II-92, (R)-N^4-(5-(1-cyclopropylethyl)-1H-pyrazol-3-yl)-N^2-ethyl-N^2((6-fluoro-1H-indazol-4-yl)methyl)pyrimidine-2,4-diamine]	–
< 50	–	C[C@@H](O)CN(Cc1cc(F)cc2[nH]ncc12)c1nccc(Nc2cc(C3CC3)[nH]n2)n1 [II-67, (R)-1-((4-((5-cyclopropyl-1H-pyrazol-3-yl)amino)pyrimidin-2-yl)((6-fluoro-1H-indazol-4-yl)methyl)amino)propan-2-ol]	–
